The subject of experiment [1] is T1, Laccase from Trichoderma lixii FLU1 (TlFLU1).
T1 construct: native extracellular enzyme purified from culture; monomer, 44 kDa (SDS-PAGE)
Put plainly: spectrophotometric oxidation assay, […] nm, Michaelis-Menten fit. Type of experiment: biochemical. Particulars: 50 mM acetate buffer pH 5, 30 °C; substrate varied 1-5 mM.

Experiment [2] concerns T2, Laccase from Talaromyces pinophilus FLU12 (TpFLU12).
T2 construct: native extracellular enzyme purified from culture
Described as above. Format: biochemical. Conditions: 50 mM acetate buffer pH 7, 50 °C; substrate varied 1-5 mM.

The test system of experiment [3] is Laccase from Trichoderma lixii FLU1 (TlFLU1). Conditions: 50 mM acetate buffer pH 5, 30 °C; substrate varied 1-5 mM.
Experiment [4] has as its system T1, Laccase from Trichoderma lixii FLU1 (TlFLU1). Put plainly: spectrophotometric oxidation assay, […] nm, Michaelis-Menten fit. Type of experiment: biochemical. Particulars: 50 mM acetate buffer pH 5, 30 °C; substrate varied 1-5 mM. This is another data set of the same source.
Experiment [5] concerns T2, Laccase from Talaromyces pinophilus FLU12 (TpFLU12). The experiment is described as above. Format: biochemical. Particulars: 50 mM acetate buffer pH 7, 50 °C; substrate varied 1-5 mM. The source holds these as a separate data set.
Experiment [6] deals with T1, Laccase from Trichoderma lixii FLU1 (TlFLU1). Described as above. Format: biochemical. Particulars: 50 mM acetate buffer pH 5, 30 °C; substrate varied 1-5 mM. This is another data set of the same source.

The Km is the substrate concentration at which the rate is half of its maximum.

Read-outs that look alike come from different tables or passages of the source.

With `COc1cccc(OC)c1O` [2,6-DMP, 2,6-dimethoxyphenol], in experiment [1], the Km stood at 13 µM.

Regarding `CCn1c(=NN=c2sc3cc(S(=O)(=O)O)ccc3n2CC)sc2cc(S(=O)(=O)O)ccc21` [ABTS, 2,2-azino-bis-(3-ethyl-benzothiazoline-6-sulphonic acid)], the Km in experiment [2] turned out to be 8.2 µM; in experiment [3], 10.8 µM.

As for `O=C(O)/C=C/c1ccc(O)c(O)c1` [caffeic acid], the Km in experiment [4] came to 43 µM; in experiment [5] it was 38.6 µM.

Regarding `COc1ccccc1O` [guaiacol], the Michaelis-Menten constant (Km) in experiment [6] was determined as 12.7 µM.
